Where two headings read alike, the source gives them in different places.
Assays:
WSU-DLCL2 = test: Methylated lysine of histone-H3 (H3K27Me3) detection by ELISA, WSU-DLCL2 cells; format: cell-based; settings: Homo sapiens, WSUDLCL2, 168 h; WSU-DLCL2, 7 days treatment, H3K27Me3 normalized to total histone-3; read-out: IC50 of cell methylation, WSU-DLCL2
Outline: (§1)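 Cells were treated 7 days with compound (4-fold dilutions, 20 uM-0.009 nM), then lysed hypotonically with NaCl adjusted to ~100 mM. Lysate-coated plates were probed by ELISA for H3K27Me3 and total H3 (TMB, A450). Methylation signal was normalised to total H3 before curve fitting.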

WSU-DLCL2 cells = test: Experiment on WSU-DLCL2 cell proliferation (Calcein-AM); format: cell-based; settings: Homo sapiens
Pfeiffer = test: Methylated lysine of histone-H3 (H3K27Me3) detection by ELISA, Pfeiffer cells; format: cell-based, human; settings: Homo sapiens, 168 h, 7 days treatment, H3K27Me3 normalized to total histone-3, read-out: IC50 of cell methylation, Pfeiffer
Outline: as §1

`CCN(c1cc(O[C@H]2C[C@H](N3C[C@@H](C)O[C@@H](C)C3)C2)cc(C(=O)NCc2c(C)cc(C)[nH]c2=O)c1C)C1CCC(F)(F)CC1` [Example 45, 3-((4,4-difluorocyclohexyl)(ethyl)amino)-N-((4,6-dimethyl-2-oxo-1,2-dihydropyridin-3-yl)methyl)-5-(trans-3-(cis-2,6-dimethylmorpholinyl)cyclobutoxy)-2-methylbenzamide] gave an IC50 (WSU-DLCL2) of 50 to 500 nM, an IC50 (WSU-DLCL2 cells; WSUDLCL2, 168 h, WSU-DLCL2, Day 7, read-out: IC50 WSU-DLCL2 proliferation Day 7) of 91 nM and an IC50 (WSU-DLCL2 cells; WSUDLCL2, 336 h, WSU-DLCL2, Day 14, read-out: IC50 WSU-DLCL2 proliferation Day 14) of 18 nM. It also gave an IC50 (Pfeiffer) of 50 to 500 nM.

Reference: US12390472B2 (SUZHOU SINOVENT PHARMACEUTICALS CO., LTD., priority 2018, dated 2025)
